Source: US9249185B2, “Peptides for promoting angiogenesis and an use thereof” (INDUSTRY-ACADEMIC COOPERATION FOUNDATION, SOOKMYUNG WOMEN'S …, priority 2010, dated 2016)

How the values were obtained:
[1] = system: human umbilical vein endothelial cells (HUVECs); experiment: Proliferation of HUVECs (CyQUANT kit); format: cell-based; details: 48 hours with peptide, negative control (untreated) = 100
Procedure: In order to investigate the effect of the 7 peptides prepared in Example 1 on blood vessel formation, human umbilical vein endothelial cells (HUVECs) were treated with the peptide of the present invention and their proliferation was observed.
HUVECs were cultured in endothelial cell basal medium-2 (EBM-2, Clonetics Co., San Diego, USA) containing 2% fetal bovine serum (FBS). The cultured HUVECs were transferred to a 96-well plate, with 1000 cells per each well. After culturing for 24 hours followed by addition of the 7 peptides of the peptide of the present invention to each well, they were further cultured for 48 hours. The cells treated with VEGF instead of the peptide of the present invention and those treated with nothing were cultured under the same condition, as positive control group and negative control group, respectively. Upon completion of the culturing, the degree of cell proliferation was measured using the CyQUANT kit (Invitrogen, USA).

HUVECs = experiment: Migration of HUVECs through polycarbonate filter chamber; format: cell-based, human; details: 37° C. for 10 hours, negative control (untreated) = 100
Procedure: In order to investigate the effect of the 7 peptides prepared in Example 1 on blood vessel formation, migration of HUVECs was measured.
The bottom portion of a chamber of a 24-well plate (Corning Costar, USA) having a polycarbonate filter with pores therebelow was coated with 0.5 mg/mL collagen type 1 ([…]). After adding EBM-2 containing the 7 peptides of the peptide of the present invention to the bottom portion of the chamber, HUVECs were inoculated at the upper portion of the chamber, with 1×10^5 cells per well. After incubation at 37° C. for 10 hours, the cells that had passed through the polycarbonate filter were fixed with methanol, stained with hematoxylin, and counted under a microscope.

Row | Substance | Cell proliferation (%) [1] [%] | Cell migration (%) (HUVECs)
1 | RQAGDS (Pep_5 Artificial Peptide for Promotion of Angiogenesis) | 207.5 | 165.4
2 | KNAGHS (Pep_4 Artificial Peptide for Promotion of Angiogenesis) | 119.6 | 135.5
3 | AGES (Pep_1 Artificial Peptide for Promotion of Angiogenesis) | 109.6 | 118.0
4 | RQAGHS (Pep_6 Artificial Peptide for Promotion of Angiogenesis) | 138.0 | 138.6
5 | KNAGDS (Pep_3 Artificial Peptide for Promotion of Angiogenesis) | 115.7 | 125.8
6 | PKAGES (Pep_2 Artificial Peptide for Promotion of Angiogenesis) | 104.4 | 159.5
7 | AGESQK (Pep_11 Artificial Peptide for Promotion of Angiogenesis) | 146.5 | 202.2
8 | Vascular endothelial growth factor [VEGF] | 166.0 | 146.3
